The record followed here is paper PMC6424980, “Distinct G protein-coupled receptor phosphorylation motifs modulate arrestin affinity and activation and global conformation” (Nature Communications, 2019).

One test relates to arrestin-1. As to the kind of experiment: [15N,1H]TROSY NMR titration of arrestin-1 with peptide. To be noted: peptide:arrestin-1 up to 10:1. The class given is binding, bovine. As to the method:
^2H,^15N,^13C-labeled arrestin-1 aliquots were thawed quickly under running water, transferred to 30 kDa-cutoff Vivaspin (0.5 ml, Sartorius) centrifugal spin concentrators, and concentrated to approximately 600 μM. The concentrator was immediately transferred into a beaker filled with 400 ml of NMR buffer 1 or 2 (see below) carried by a floatation device. The dialysis was performed at 4 °C overnight. On the next day the concentration was determined by UV absorbance at 280 nm (molar extinction coefficient 26,360/mol/cm). […] The dialysis was performed at 4 °C overnight, and the peptide concentration was determined by its absorbance at 205 nm (molar extinction coefficient: 54,310/mol/cm). […]
NMR measurements were performed on Bruker Avance III-HD 600 or 900 MHz spectrometer using a CTCI cryo-cooled probehead. […] Pulse lengths were calibrated for ^1H manually and for ^13C/^15N using an in-house automated procedure. pH was monitored using the position of the phosphate signal in NMR buffer 2 as an internal reference and varied by no more than 0.03 pH units during peptide titration experiments. [^15N,^1H]TROSY experiments were recorded with internal ETH pulse sequences, whereas 3D triple resonance TROSY experiments were recorded using the manufacturer’s pulse sequences. […]

For test [1], the target named is T1, arrestin-1 (monomerizing mutant F85A, F197A) (Bos taurus, UniProt P08168, F197A/F85A).
T1 construct: made in house; host or cells: E. coli NiCo (DE3) cells (New England Biolabs), pET-15b vector
T1 sequence (P08168 whole entry F85A/F197A): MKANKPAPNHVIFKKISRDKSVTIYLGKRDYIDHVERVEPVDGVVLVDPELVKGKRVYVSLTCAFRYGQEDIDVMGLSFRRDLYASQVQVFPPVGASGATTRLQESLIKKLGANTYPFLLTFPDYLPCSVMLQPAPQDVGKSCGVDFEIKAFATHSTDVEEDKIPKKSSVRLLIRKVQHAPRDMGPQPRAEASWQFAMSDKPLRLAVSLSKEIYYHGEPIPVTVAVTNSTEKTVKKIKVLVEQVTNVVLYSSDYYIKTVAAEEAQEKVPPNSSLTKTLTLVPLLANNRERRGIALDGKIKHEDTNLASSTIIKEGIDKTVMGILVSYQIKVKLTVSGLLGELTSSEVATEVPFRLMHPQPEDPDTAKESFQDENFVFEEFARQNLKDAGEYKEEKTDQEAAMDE
Put plainly: Fluorescence anisotropy binding of fluorescein-labelled peptides to arrestin-1. Set-up: species or system bovine. The source says: Synthesized cDNAs of bovine arrestin-1, human arrestin-2 and human arrestin-3 were ordered from Genewiz, amplified by PCR and cloned (Supplementary Information Table 5) into the pET-15b vector (Novagen), using the Gibson Assembly protocol. The constructs contained an N-terminal hexa histidine tag linked by a linker that contained a Tobacco Etch Virus cleavage site (TEV; […]). PCR was used to introduce the monomerizing arrestin-1 mutations (F85A, F197A)[58]. Note that this mutant was employed for fluorescence anisotropy, trypsin digestion, and NMR experiments. Wild-type arrestin-2 and -3 were used for fluorescence anisotropy and trypsin digestion experiments. […] The arrestin-1 in this construct had the wild-type sequence. Note that this construct differs slightly from that previously published[59],[60] and was optimized for purification. We verified the functionality of this fusion construct using the standard centrifugal pull-down assay using phosphorylated rhodopsin in native ROS membranes.
0.1–0.2 mg of lyophilized peptide was dissolved in 50 µl of 50 mM phosphate-buffered saline (PBS) buffer at pH 7.0, and then two molar equivalents of fluorescein-5-maleimide dye stock dissolved in dimethylsulfoxid was added. The reaction was carried out at RT in the dark. After 1 h the reaction was topped up with 1 ml of ice-cold 100% acetone and stored until the next day at −20 °C. The precipitated peptide was centrifuged (13,000 × g) for 10 min. The labeled and precipitated peptide was sedimented, and the supernatant was removed. The peptide was resuspended again in ice-cold acetone, stored for 1 h at −20 °C and centrifuged (13,000 × g) for 10 min. […] The precipitated peptide was dried at RT in the dark. It was dissolved in 50 µl of 20 mM Bis-Tris propane pH 7.0 and 150 mM NaCl and its concentration was determined by absorbance. A molar extinction coefficient of 70,000/M/cm at pH 7.0 was assumed for calculating the concentration of the labeled peptide stock.
An 11-step serial dilution series of arrestin in 20 mM Bis-Tris propane pH 7.0, 150 mM NaCl, 8 mM 2‑mercaptoethanol, 2% (w/w) BSA, 0.02% (v/v) Tween-20 was prepared and transferred to a black high-bottom 384-well plate (Greiner). As control for free peptide, a position with only buffer was included. The peptide was added at a final concentration of 20 nM to each well. The plate was closed by a clear cover and vortexed for 15 s. Afterwards it was centrifuged (800 × g) for 2 min and stored at RT for 20 min. The reading was performed by default settings of PHERAstar plate-reader (BMG Labtech) and excitation‑/emission-wavelengths of 485 nm (12 nm bandpass)/520 nm (30 nm bandpass) were used. The analysis was performed using Origin2016 (Microcal Inc) software by fitting the data to a one-to-one binding model:2 r=R0+△R*P/Kd+P, where r stands for anisotropy, R0 stands for anisotropy of the ligand, ΔR stands for anisotropy of the complex minus anisotropy of the ligand, P stands for the concentration of protein, and Kd stands for the dissociation constant of the ligand.
(In general: Polarisation of emitted light reports the rotation of a fluorescent probe.)

Regarding “CDDEASTTVSKTETSQVAPA [5P, multiply phosphorylated rhodopsin C-terminus peptide lacking key site pS343]”, the “NMR chemical shift / peak changes in arrestin-1 (in words)” value with arrestin-1 is on record as “minimal chemical shift changes”. Besides, the “binding to arrestin-1 (in words)” value in test [1] is “significant loss of affinity”.
